Laboratory results taken from patent publication US12285407B2, “Bis-indolylmethane derivatives and uses thereof” (The University of The West Indies, priority 2018, dated 2025).

What was measured:
[1] = system: MRSA; assay: Adjuvant broth microdilution (antibiotic MIC with SP-BIM at 50 μg/mL); assay type: cell-based, Staphylococcus aureus; settings: antibiotic alone; for MIC: Staphylococcus aureus, Table 4, read-out: MIC of antibiotic, No compound; for MIC of antibiotic, No Compound: Table 8 (series SP-BIMs 21-29)
[2] = system: clinical strains of MRSA; assay: Kirby Bauer disc diffusion susceptibility profile; assay type: cell-based, Staphylococcus aureus; settings: for Zone of clearance: 35° C., 24 hours, average n=3; for Interpretive standard (resistant/susceptible): zones vs EUCAST breakpoints (Table 30)
[3] = system: clinical antibiotic resistant isolates of MRSA; assay: Checkerboard resistance breaking by SP-BIM 13; assay type: cell-based, Staphylococcus aureus; settings: for FIC compound / Rescue concentration of SP-BIM 13: SP-BIM 13 with the labelled antibiotic; for Interpretation / Σ FIC: antibiotic + SP-BIM 13; for MIC of antibiotic only: antibiotic alone; for FIC antibiotic: combination with SP-BIM 13; for MIC of antibiotic in combination: with SP-BIM 13 at rescue concentration
[4] = system: Enterococcus faecalis; assay: Adjuvant broth microdilution (antibiotic MIC with SP-BIM at 50 μg/mL); assay type: cell-based; settings: antibiotic alone

SMILES: C[C@H]1c2cccc(O)c2C(=O)C2=C(O)[C@]3(O)C(=O)C(C(N)=O)=C(O)[C@@H](N(C)C)[C@@H]3[C@@H](O)[C@@H]21 [Doxycycline, doxycycline]
- MIC [1]: 8 mg/L
- MIC of antibiotic, No Compound [1]: <0.5 mg/L
- Zone of clearance ([2]; MRSA strain 1594): 12.5 mm
- Interpretive standard (resistant/susceptible) ([2]; MRSA strain 1594): R
- Zone of clearance ([2]; MRSA strain 1621): 21.0 mm
- Interpretive standard (resistant/susceptible) ([2]; MRSA strain 1621): S
- Zone of clearance ([2]; MRSA strain 5455): 22.5 mm
- Interpretive standard (resistant/susceptible) ([2]; MRSA strain 5455): S
- Zone of clearance ([2]; MRSA strain 5872): 15.0 mm
- Interpretive standard (resistant/susceptible) ([2]; MRSA strain 5872): R
- Zone of clearance ([2]; MRSA strain 7153): 18.0 mm
- Interpretive standard (resistant/susceptible) ([2]; MRSA strain 7153): R
- Zone of clearance ([2]; MRSA strain 7172): 19.0 mm
- Interpretive standard (resistant/susceptible) ([2]; MRSA strain 7172): R
- Zone of clearance ([2]; MRSA strain 7698): 10.5 mm
- Interpretive standard (resistant/susceptible) ([2]; MRSA strain 7698): R
- Zone of clearance ([2]; MRSA strain 10132): 12.0 mm
- Interpretive standard (resistant/susceptible) ([2]; MRSA strain 10132): R
- FIC compound ([3]; MRSA strain 1594): 0.3
- Rescue concentration of SP-BIM 13 ([3]; MRSA strain 1594): 63 µg/mL
- Interpretation ([3]; MRSA strain 1594): Synergy (Synergy: FICI≤0.5)
- Σ FIC ([3]; MRSA strain 1594): <0.43
- MIC of antibiotic only ([3]; MRSA strain 1594): 8 mg/L
- FIC antibiotic ([3]; MRSA strain 1594): 0.125
- MIC of antibiotic in combination ([3]; MRSA strain 1594): 1 mg/L
- FIC compound ([3]; MRSA strain 5872): 0.064
- Rescue concentration of SP-BIM 13 ([3]; MRSA strain 5872): 16 µg/mL
- Interpretation ([3]; MRSA strain 5872): Synergy (Synergy: FICI≤0.5)
- Σ FIC ([3]; MRSA strain 5872): <0.19
- MIC of antibiotic only ([3]; MRSA strain 5872): 32 mg/L
- FIC antibiotic ([3]; MRSA strain 5872): 0.125
- MIC of antibiotic in combination ([3]; MRSA strain 5872): 4 mg/L
- FIC compound ([3]; MRSA strain 7153): 0.128
- Rescue concentration of SP-BIM 13 ([3]; MRSA strain 7153): 32 µg/mL
- Interpretation ([3]; MRSA strain 7153): Synergy (Synergy: FICI≤0.5)
- Σ FIC ([3]; MRSA strain 7153): <0.25
- MIC of antibiotic only ([3]; MRSA strain 7153): 8 mg/L
- FIC antibiotic ([3]; MRSA strain 7153): 0.125
- MIC of antibiotic in combination ([3]; MRSA strain 7153): 1 mg/L
- FIC compound ([3]; MRSA strain 7172): 0.128
- Rescue concentration of SP-BIM 13 ([3]; MRSA strain 7172): 32 µg/mL
- Interpretation ([3]; MRSA strain 7172): Synergy (Synergy: FICI≤0.5)
- Σ FIC ([3]; MRSA strain 7172): <0.38
- MIC of antibiotic only ([3]; MRSA strain 7172): 8 mg/L
- FIC antibiotic ([3]; MRSA strain 7172): 0.250
- MIC of antibiotic in combination ([3]; MRSA strain 7172): 2 mg/L
- FIC compound ([3]; MRSA strain 7698): 0.128
- Rescue concentration of SP-BIM 13 ([3]; MRSA strain 7698): 32 µg/mL
- Interpretation ([3]; MRSA strain 7698): Synergy (Synergy: FICI≤0.5)
- Σ FIC ([3]; MRSA strain 7698): <0.19
- MIC of antibiotic only ([3]; MRSA strain 7698): 16 mg/L
- FIC antibiotic ([3]; MRSA strain 7698): 0.063
- MIC of antibiotic in combination ([3]; MRSA strain 7698): 1 mg/L
- FIC compound ([3]; MRSA strain 10132): 0.032
- Rescue concentration of SP-BIM 13 ([3]; MRSA strain 10132): 8 µg/mL
- Interpretation ([3]; MRSA strain 10132): Synergy (Synergy: FICI≤0.5)
- Σ FIC ([3]; MRSA strain 10132): <0.09
- MIC of antibiotic only ([3]; MRSA strain 10132): 8 mg/L
- FIC antibiotic ([3]; MRSA strain 10132): 0.063
- MIC of antibiotic in combination ([3]; MRSA strain 10132): 0.5 mg/L
- MIC of antibiotic, No Compound [4]: 0.5 mg/L

SMILES: CC[C@H]1OC(=O)[C@H](C)[C@@H](O[C@H]2C[C@@](C)(OC)[C@@H](O)[C@H](C)O2)[C@H](C)[C@@H](O[C@@H]2O[C@H](C)C[C@H](N(C)C)[C@H]2O)[C@](C)(O)C[C@@H](C)C(=O)[C@H](C)[C@@H](O)[C@]1(C)O [Erythromycin, erythromycin]
- MIC [1]: 4 mg/L
- MIC of antibiotic, No Compound [1]: 8 mg/L
- Zone of clearance ([2]; MRSA strain 1594): 19.0 mm
- Interpretive standard (resistant/susceptible) ([2]; MRSA strain 1594): S
- Zone of clearance ([2]; MRSA strain 1621): 21.5 mm
- Interpretive standard (resistant/susceptible) ([2]; MRSA strain 1621): S
- Zone of clearance ([2]; MRSA strain 5455): 20.5 mm
- Interpretive standard (resistant/susceptible) ([2]; MRSA strain 5455): S
- Zone of clearance ([2]; MRSA strain 5872): 0.0 mm
- Interpretive standard (resistant/susceptible) ([2]; MRSA strain 5872): R
- Zone of clearance ([2]; MRSA strain 7153): 18.5 mm
- Interpretive standard (resistant/susceptible) ([2]; MRSA strain 7153): S
- Zone of clearance ([2]; MRSA strain 7172): 17.5 mm
- Interpretive standard (resistant/susceptible) ([2]; MRSA strain 7172): S
- Zone of clearance ([2]; MRSA strain 7698): 17.5 mm
- Interpretive standard (resistant/susceptible) ([2]; MRSA strain 7698): S
- Zone of clearance ([2]; MRSA strain 10132): 9.0 mm
- Interpretive standard (resistant/susceptible) ([2]; MRSA strain 10132): R
- Rescue concentration of SP-BIM 13 ([3]; MRSA strain 5872): 32 µg/mL
- Interpretation ([3]; MRSA strain 5872): Synergy (Synergy: FICI≤0.5)
- Σ FIC ([3]; MRSA strain 5872): <0.14
- MIC of antibiotic only ([3]; MRSA strain 5872): 250 mg/L
- FIC antibiotic ([3]; MRSA strain 5872): 0.016
- MIC of antibiotic in combination ([3]; MRSA strain 5872): 4 mg/L
- Rescue concentration of SP-BIM 13 ([3]; MRSA strain 10132): 32 µg/mL
- Interpretation ([3]; MRSA strain 10132): Synergy (Synergy: FICI≤0.5)
- MIC of antibiotic only ([3]; MRSA strain 10132): 250 mg/L
- FIC antibiotic ([3]; MRSA strain 10132): 0.004
- MIC of antibiotic in combination ([3]; MRSA strain 10132): 1 mg/L
- MIC of antibiotic, No Compound [4]: 250 mg/L

SMILES: [H]/N=C(/N)N[C@H]1[C@H](O)[C@@H](O)[C@H](O[C@@H]2O[C@@H](C)[C@](O)(C=O)[C@H]2O[C@@H]2O[C@@H](CO)[C@H](O)[C@@H](O)[C@@H]2NC)[C@@H](N/C(N)=N\[H])[C@@H]1O [Streptomycin, streptomycin]
- MIC [1]: 63 mg/L
- Zone of clearance ([2]; MRSA strain 1594): 11.5 mm
- Interpretive standard (resistant/susceptible) ([2]; MRSA strain 1594): R
- Zone of clearance ([2]; MRSA strain 1621): 17.0 mm
- Interpretive standard (resistant/susceptible) ([2]; MRSA strain 1621): S
- Zone of clearance ([2]; MRSA strain 5455): 17.0 mm
- Interpretive standard (resistant/susceptible) ([2]; MRSA strain 5455): S
- Zone of clearance ([2]; MRSA strain 5872): 8.0 mm
- Interpretive standard (resistant/susceptible) ([2]; MRSA strain 5872): R
- Zone of clearance ([2]; MRSA strain 7153): 16.0 mm
- Interpretive standard (resistant/susceptible) ([2]; MRSA strain 7153): I
- Zone of clearance ([2]; MRSA strain 7172): 18.5 mm
- Interpretive standard (resistant/susceptible) ([2]; MRSA strain 7172): S
- Zone of clearance ([2]; MRSA strain 7698): 12.0 mm
- Interpretive standard (resistant/susceptible) ([2]; MRSA strain 7698): R
- Zone of clearance ([2]; MRSA strain 10132): 8.5 mm
- Interpretive standard (resistant/susceptible) ([2]; MRSA strain 10132): R
- FIC compound ([3]; MRSA strain 1594): 0.004
- Rescue concentration of SP-BIM 13 ([3]; MRSA strain 1594): 16 µg/mL
- Interpretation ([3]; MRSA strain 1594): Synergy (Synergy: FICI≤0.5)
- Σ FIC ([3]; MRSA strain 1594): <0.13
- MIC of antibiotic only ([3]; MRSA strain 1594): 63 mg/L
- FIC antibiotic ([3]; MRSA strain 1594): 0.127
- MIC of antibiotic in combination ([3]; MRSA strain 1594): 8 mg/L
- FIC compound ([3]; MRSA strain 5872): 0.064
- Rescue concentration of SP-BIM 13 ([3]; MRSA strain 5872): 16 µg/mL
- Interpretation ([3]; MRSA strain 5872): Synergy (Synergy: FICI≤0.5)
- Σ FIC ([3]; MRSA strain 5872): <0.07
- MIC of antibiotic only ([3]; MRSA strain 5872): 125 mg/L
- FIC antibiotic ([3]; MRSA strain 5872): 0.004
- MIC of antibiotic in combination ([3]; MRSA strain 5872): 0.5 mg/L
- FIC compound ([3]; MRSA strain 7153): 0.064
- Rescue concentration of SP-BIM 13 ([3]; MRSA strain 7153): 16 µg/mL
- Interpretation ([3]; MRSA strain 7153): Synergy (Synergy: FICI≤0.5)
- Σ FIC ([3]; MRSA strain 7153): <0.08
- MIC of antibiotic only ([3]; MRSA strain 7153): 63 mg/L
- FIC antibiotic ([3]; MRSA strain 7153): 0.016
- MIC of antibiotic in combination ([3]; MRSA strain 7153): 1 mg/L
- FIC compound ([3]; MRSA strain 7698): 0.032
- Rescue concentration of SP-BIM 13 ([3]; MRSA strain 7698): 8 µg/mL
- Interpretation ([3]; MRSA strain 7698): Synergy (Synergy: FICI≤0.5)
- Σ FIC ([3]; MRSA strain 7698): <0.05
- MIC of antibiotic only ([3]; MRSA strain 7698): 125 mg/L
- FIC antibiotic ([3]; MRSA strain 7698): 0.016
- MIC of antibiotic in combination ([3]; MRSA strain 7698): 2 mg/L
- FIC compound ([3]; MRSA strain 10132): 0.064
- Rescue concentration of SP-BIM 13 ([3]; MRSA strain 10132): 16 µg/mL
- Interpretation ([3]; MRSA strain 10132): Synergy (Synergy: FICI≤0.5)
- Σ FIC ([3]; MRSA strain 10132): <0.07
- MIC of antibiotic only ([3]; MRSA strain 10132): 63 mg/L
- FIC antibiotic ([3]; MRSA strain 10132): 0.008
- MIC of antibiotic in combination ([3]; MRSA strain 10132): 0.5 mg/L
